# How the values were obtained:
# [1] = target: T1, STING (Mus musculus, UniProt Q3TBT3); experiment: Flow cytometry of intracellular STING in Raw264.7 cells; type: cell-based; set-up: endogenous in cells; host or cells: Raw264.7; details: 24 hours, FIG. 15
# T1 sequence (Q3TBT3 1-378): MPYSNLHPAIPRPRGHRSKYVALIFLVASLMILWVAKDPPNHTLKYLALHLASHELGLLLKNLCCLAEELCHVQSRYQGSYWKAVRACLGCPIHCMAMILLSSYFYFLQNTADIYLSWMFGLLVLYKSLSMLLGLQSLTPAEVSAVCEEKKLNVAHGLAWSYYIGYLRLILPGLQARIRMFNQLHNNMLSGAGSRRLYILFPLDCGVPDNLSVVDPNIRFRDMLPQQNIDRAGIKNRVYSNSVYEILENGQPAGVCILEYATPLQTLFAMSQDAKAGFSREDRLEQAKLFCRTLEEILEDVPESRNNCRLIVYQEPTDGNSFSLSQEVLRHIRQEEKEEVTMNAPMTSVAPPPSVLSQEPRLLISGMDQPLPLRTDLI
# Procedure: It was verified whether the oxopiperazine derivatives increased the efficacy of STING agonists and other cancer immunotherapy, including immune checkpoint inhibitors. First, it was verified through flow cytometry and Western blotting whether the oxopiperazine derivatives increase the amount of STING.
# To measure the intracellular amount of STING through flow cytometry, Raw264.7 cells were seeded in a transparent 6-well plate and cultured for one day. Thereafter, the cells were treated with a solution, in which the compound of Formula 1 is diluted in a culture medium without FBS, and cultured for 24 hours. […] After centrifugation of the collected cells, the supernatant was removed, the cells were redistributed in FACS solution (Hank's balanced salt solution (HBSS) including 2% horse serum and 0.05% NaN3), and the number of cells was measured. […] Finally, the Triton solution was added, centrifugation was performed, the supernatant was removed, the cells were redistributed into 200 μL of the Triton solution and analyzed by using a FACSCalibur instrument from BD Bioscience, and the results were quantitatively analyzed by using the FlowJo program from Tree Star, Inc.
# [2] = tested on: STING subcytokines (IFN-β, IL-6, IL-15, IL-15Rα); experiment: qRT-PCR of STING subcytokine gene expression in Raw264.7 cells; type: cell-based, mouse; details: time-dependent and concentration-dependent, FIG. 6
# Procedure: In order to confirm whether the oxopiperazine derivatives of Formulas 1 to 6 increase the immune activation efficacy of the STING agonist cGAMP by increasing the amount of STING, the gene expression levels of the STING subcytokine interferon-beta (IFN-β), interleukin-6 (IL-6), interleukin-15 (IL-15), and interleukin-15 receptor alpha (IL-15Rα) were confirmed through quantitative real-time PCR (qRT-PCR) experiments.
# Specifically, Raw264.7 cells were seeded in a transparent 12-well plate and cultured for one day. Thereafter, the cells were treated with cGAMP and the oxopiperazine derivatives of Formulas 1 to 6, respectively, and then cultured for six hours. Finally, after the supernatant culture medium of the cells was removed, the remaining supernatant was diluted with PBS (phosphate buffer saline) and removed to prepare qRT-PCR samples. mRNA was extracted from cells by using the RNeasy mini kit of QIAGEN according to the protocol of the manufacturer. After the concentration of RNA was measured by using Nanoview equipment of GE Healthcare, 1 μg RNA was quantified, and complementary DNA (cDNA) was synthesized by using the Accupower cyclescript RT premix dT20 (Bioneer) product according to the protocol of the manufacturer. […] The mixed samples were analyzed by using the StepOne Plus Real-Time PCR system (Applied Biosciences), and the results were plotted by using the Prism 8.0 program.
# [3] = tested on: CT26 tumor; experiment: Tumor growth in CT26 in vivo syngeneic mouse model; details: CT26, intratumoral, FIG. 23
# Procedure: (§1) 2×10^5 CT26 cell lines were prepared in 50 μL culture medium and subcutaneously injected. […] The cGAMP solution was manufactured with a final composition of PEG400:distilled water=40:60, and 20 μL was injected each time. The solution of the compound of Formula 1 was manufactured with the composition of DMSO:PEG400:distilled water=2:40:58, and 20 μL was injected each time. The cGAMP solution was injected once every two days, four times in total, and the solution of the compound of Formula 1 was injected once every four days, two times in total, starting with the second administration of cGAMP. The size of the tumor was measured by using calipers every two days, and the volume thereof was calculated as (length×width×height/2). The body weight of the mice was also measured every two days.
# [4] = Body weight and toxicity signals in CT26 syngeneic mouse model; type: in vivo; details: treated individually or in combination, FIG. 24
# Procedure: as §1
# [5] = target: T1, STING; experiment: STING expression level in immune cells inside tumor by flow cytometry; type: in vivo; details: compound alone, FIG. 28
# Procedure: As described above, after euthanasia with carbon dioxide, the tumor was extracted, TIL was separated, and intracellular STING staining was performed in the same manner as in <Example 6>.
# [6] = target: T1, STING; experiment: Western blotting of intracellular STING in Raw264.7 cells; type: cell-based; set-up: endogenous in cells; host or cells: Raw264.7; details: concentration-dependent, FIG. 16
# [7] = combination with cGAMP compared with the control group
smiles,measurement,setting,value
"COc1ccc(CC2=CN(c3ccc(C(=O)NC[C@H]4CCCO4)cc3[N+](=O)[O-])[C@H](C(C)C)C(=O)N2Cc2ccc(O)cc2)cc1 [Formula 1, 4-((R)-4-(4-hydroxybenzyl)-2-isopropyl-5-(4-methoxybenzyl)-3-oxo-3,4-dihydropyrazin-1 (2H)-yl)-3-nitro-N-(((R)-tetrahydrofuran-2-yl)methyl)benzamide]",fluorescence labeling intensity of intracellular STING,[1],increased in a concentration-dependent manner
same,expression of IL-15 and IL-15Rα,[2],increased
same,tumor growth,[3]; combination with cGAMP compared with single treatment with cGAMP,inhibited in a concentration-dependent manner
same,tumor growth,[3]; [7],inhibited
same,weight of the tumor extracted on the final day,[3]; [7],reduced
same,body weight change or signal of toxicity,[4],significant change in body weight or signal of toxicity was not observed
same,amount of STING in tumor-associated macrophages (TAM) and dendritic cells (DC),[5]; tumor extracted one day after final treatment,increased
same,effect of increasing STING in M1 compared to M2 macrophages,[5],more noticeably exhibited in M1 macrophages
same,intracellular amount of STING,[6],increased

# From patent US20250127778A1, “CANCER IMMUNOTHERAPY COMPOSITION CONTAINING INTERACTION INHIBITOR OF STING AND TRIM29 AS ACTIVE INGREDIENT” (SPARK BIOPHARMA, INC, priority 2021, published 2025)
